Legend:
[1] = system: vaccinia virus expressing a β-galactosidase protein (vSC8); set-up: species or system HHD-2 mice; conditions: mouse, in vivo
[2] = system: vaccinia virus expressing a reverse transcriptase protein of HIV (vCF21); set-up: species or system HHD-2 mice; conditions: mouse, in vivo

With YLYQYMDDV the “protection against vaccinia strain (vSC8) that does not express RT” value [1] was “Neither population of mice displayed protection” and the “protection against vCF21 infection” value [2] was “only partially protected”.
